Our source for the TGI values is PubChem BioAssay (NCI).

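Values below derive from 48-hour exposures of cells grown in 96-well plates, with endpoints linearly interpolated between the two concentrations bracketing the appropriate inhibition level. The concentration for full growth arrest is given as TGI.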 Bounds are passed on as bounds.

The test system of the first assay is A549 NSCLC. In words: NCI tumour cell line growth inhibition, 48 h.
In turn, `CCNC(=O)Cc1nc2c(N)ncnc2n1C1OC(CO)C(O)C1O` (stereo not given) registered a TGI of over 100 µM.
For the compound `CCOC(=O)C1=C(C)C2C=C(c3cccs3)CC(c3ccc(Cl)cc3)=C2OC1=O` (stereo not given), the TGI is over 100 µM.
`CCCCC(C(=O)NCCNC(=O)CCC(=O)N(C)O)C(=O)NCCNC(=O)CCC(=O)N(C)O` came in with a TGI of over 100 µM.

A further assay has as its system COLO 205 colon. In words: NCI tumour cell line growth inhibition, 48 h.
`CCNC(=O)Cc1nc2c(N)ncnc2n1C1OC(CO)C(O)C1O` (stereo not given) gave a TGI of over 100 µM.
On to `CCOC(=O)C1=C(C)C2C=C(c3cccs3)CC(c3ccc(Cl)cc3)=C2OC1=O` (stereo not given), for which the TGI is over 100 µM.
In turn, `CCCCC(C(=O)NCCNC(=O)CCC(=O)N(C)O)C(=O)NCCNC(=O)CCC(=O)N(C)O` returned a TGI of over 100 µM.

The next assay concerns MDA-N. Kind of assay: NCI tumour cell line growth inhibition, 48 h.
In turn, `CCNC(=O)Cc1nc2c(N)ncnc2n1C1OC(CO)C(O)C1O` (stereo not given) showed a TGI of over 100 µM.
`CCOC(=O)C1=C(C)C2C=C(c3cccs3)CC(c3ccc(Cl)cc3)=C2OC1=O` (stereo not given) yielded a TGI of over 100 µM.
For the compound `CCCCC(C(=O)NCCNC(=O)CCC(=O)N(C)O)C(=O)NCCNC(=O)CCC(=O)N(C)O`, the TGI is over 100 µM.

A further assay deals with UO-31 renal. Kind of assay: NCI tumour cell line growth inhibition, 48 h.
In turn, `CCNC(=O)Cc1nc2c(N)ncnc2n1C1OC(CO)C(O)C1O` (stereo not given) yielded a TGI of over 100 µM.
Same read-out and setting: the result for `CCOC(=O)C1=C(C)C2C=C(c3cccs3)CC(c3ccc(Cl)cc3)=C2OC1=O` (stereo not given) reads over 100 µM.
`CCCCC(C(=O)NCCNC(=O)CCC(=O)N(C)O)C(=O)NCCNC(=O)CCC(=O)N(C)O` yielded a TGI of over 100 µM.

A further assay has as its system HCC-2998 colon. In words: NCI tumour cell line growth inhibition, 48 h.
Regarding `CCNC(=O)Cc1nc2c(N)ncnc2n1C1OC(CO)C(O)C1O` (stereo not given), the TGI was over 100 µM.
On to `CCOC(=O)C1=C(C)C2C=C(c3cccs3)CC(c3ccc(Cl)cc3)=C2OC1=O` (stereo not given), for which the TGI came out at 77.3 µM.
`CCCCC(C(=O)NCCNC(=O)CCC(=O)N(C)O)C(=O)NCCNC(=O)CCC(=O)N(C)O` registered a TGI of over 100 µM.

A further assay has as its system OVCAR-3 ovarian. Kind of assay: NCI tumour cell line growth inhibition, 48 h.
Consider `CCNC(=O)Cc1nc2c(N)ncnc2n1C1OC(CO)C(O)C1O` (stereo not given), for which the TGI was over 100 µM.
`CCOC(=O)C1=C(C)C2C=C(c3cccs3)CC(c3ccc(Cl)cc3)=C2OC1=O` (stereo not given): the TGI is over 100 µM.
`CCCCC(C(=O)NCCNC(=O)CCC(=O)N(C)O)C(=O)NCCNC(=O)CCC(=O)N(C)O` displayed a TGI of over 100 µM.

In a further assay the test system is HOP-92 NSCLC. Kind of assay: NCI tumour cell line growth inhibition, 48 h.
The compound `CCNC(=O)Cc1nc2c(N)ncnc2n1C1OC(CO)C(O)C1O` (stereo not given) gave a TGI of over 100 µM.
`CCOC(=O)C1=C(C)C2C=C(c3cccs3)CC(c3ccc(Cl)cc3)=C2OC1=O` (stereo not given) showed a TGI of over 100 µM.
For `CCCCC(C(=O)NCCNC(=O)CCC(=O)N(C)O)C(=O)NCCNC(=O)CCC(=O)N(C)O`, the TGI is over 100 µM.

For a further assay, the system named is HL-60(TB) leukemia. In words: NCI tumour cell line growth inhibition, 48 h.
As to `CCNC(=O)Cc1nc2c(N)ncnc2n1C1OC(CO)C(O)C1O` (stereo not given), the TGI is over 100 µM.
`CCOC(=O)C1=C(C)C2C=C(c3cccs3)CC(c3ccc(Cl)cc3)=C2OC1=O` (stereo not given) displayed a TGI of 31.6 µM.
Same read-out and setting: the result for `CCCCC(C(=O)NCCNC(=O)CCC(=O)N(C)O)C(=O)NCCNC(=O)CCC(=O)N(C)O` reads over 100 µM.

The next assay has as its system CAKI-1 renal. Kind of assay: NCI tumour cell line growth inhibition, 48 h.
Take `CCNC(=O)Cc1nc2c(N)ncnc2n1C1OC(CO)C(O)C1O` (stereo not given): the TGI was over 100 µM.
For `CCOC(=O)C1=C(C)C2C=C(c3cccs3)CC(c3ccc(Cl)cc3)=C2OC1=O` (stereo not given), the TGI is over 100 µM.
The compound `CCCCC(C(=O)NCCNC(=O)CCC(=O)N(C)O)C(=O)NCCNC(=O)CCC(=O)N(C)O` yielded a TGI of over 100 µM.

Another assay has as its system SR leukemia. In words: NCI tumour cell line growth inhibition, 48 h.
With `CCNC(=O)Cc1nc2c(N)ncnc2n1C1OC(CO)C(O)C1O` (stereo not given), the TGI was over 100 µM.
For the compound `CCOC(=O)C1=C(C)C2C=C(c3cccs3)CC(c3ccc(Cl)cc3)=C2OC1=O` (stereo not given), the TGI stood at 50 µM.
Same read-out and setting: under `CCCCC(C(=O)NCCNC(=O)CCC(=O)N(C)O)C(=O)NCCNC(=O)CCC(=O)N(C)O` stands over 100 µM.
